Test results as given in the supplement of paper PMC10307832.

What was measured:
Experiment in all cases: relative viability (nuclei count vs DMSO), 5 days (fraction); higher = more cells survive
[1] = compound: CCN(CCO)CCCC(C)Nc1ccnc2cc(Cl)ccc12 [Hydroxychloroquine] + CC(=O)Nc1cccc(-n2c(=O)n(C3CC3)c(=O)c3c(Nc4ccc(I)cc4F)n(C)c(=O)c(C)c32)c1 [Trametinib] (partner 0.02 µM)
Method in brief: (§1)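 A single step with final 0.05% Triton X-100, 1% formaldehyde and 1 ug/ml Hoechst fixed the cells and stained nuclei 5 days after treatment. Lung cancer cell lines in 1536-well plates had been treated by pin tool the day after seeding with one drug alone or a fixed anchor-drug dose plus five library-drug doses (not always all listed) in √10 steps, and nuclei were counted on 4× images. Relative viability is the ratio of nuclei in treated wells to nuclei in vehicle wells, taken as the median of duplicate plates.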

[2] = compound: CCN(CCO)CCCC(C)Nc1ccnc2cc(Cl)ccc12 [Hydroxychloroquine] + C[C@@H](Oc1cc(-c2cnn(C3CCNCC3)c2)cnc1N)c1c(Cl)ccc(F)c1Cl [Crizotinib] (partner 1 µM)
Method in brief: as §1

[3] = compound: CCN(CCO)CCCC(C)Nc1ccnc2cc(Cl)ccc12 [Hydroxychloroquine] + N=C(N)NC(=N)NCCc1ccccc1 [Phenformin] (partner 250 µM)
Method in brief: as §1

[4] = compound: CCN(CCO)CCCC(C)Nc1ccnc2cc(Cl)ccc12 [Hydroxychloroquine] + COc1cccc2cc(-c3nc([C@H]4CC[C@H](C(=O)O)CC4)n4ncnc(N)c34)[nH]c12 [OSI-027] (partner 0.5 µM)
Method in brief: as §1

Cell Line	relative viability ([1]; first compound 0.5 µM)	relative viability ([1]; first compound 1.581 µM)	relative viability ([1]; first compound 5 µM)	relative viability ([1]; first compound 15.81 µM)	relative viability ([1]; first compound 50 µM)	relative viability ([2]; first compound 0.5 µM)	relative viability ([2]; first compound 1.581 µM)	relative viability ([2]; first compound 5 µM)	relative viability ([2]; first compound 15.81 µM)	relative viability ([2]; first compound 50 µM)	relative viability ([3]; first compound 0.5 µM)	relative viability ([3]; first compound 1.581 µM)	relative viability ([3]; first compound 5 µM)	relative viability ([3]; first compound 15.81 µM)	relative viability ([3]; first compound 50 µM)	relative viability ([4]; first compound 0.5 µM)	relative viability ([4]; first compound 1.581 µM)	relative viability ([4]; first compound 5 µM)	relative viability ([4]; first compound 15.81 µM)	relative viability ([4]; first compound 50 µM)
NCI-H1734	0.639	0.604	0.645	0.668	0.699	0.652	0.559	0.741	0.582	0.716	0.361	0.42	0.361	0.358	0.405	0.555	0.526	0.581	0.606	0.677
NCI-H1755	0.743	0.729	0.776	0.726	0.732	0.983	0.768	0.86	0.866	0.879	0.628	0.529	0.63	0.636	0.572	0.797	0.617	0.628	0.649	0.574
NCI-H1792	0.496	0.464	0.474	0.387	0.378	0.951	1.05	1.01	1.08	1.07	0.529	0.261	0.258	0.102	0.371	0.797	0.729	0.715	1.04	0.825
NCI-H1915	0.328	0.251	0.325	0.311	0.306	0.953	0.935	0.937	0.982	1.01	0.347	0.36	0.361	0.383	0.369	0.648	0.53	0.599	0.583	0.685
NCI-H1944	0.398	0.354	0.39	0.403	0.41	1.07	1.06	1.07	1.04	1.19	0.196	0.17	0.193	0.195	0.204	0.445	0.33	0.418	0.337	0.453
NCI-H1975	0.36	0.322	0.341	0.38	0.321	1.05	1.08	0.926	1.06	1.15	0.41	0.37	0.378	0.408	0.396	0.846	0.74	0.711	0.868	0.991
NCI-H1993	0.525	0.589	0.597	0.551	0.469	0.867	0.948	0.803	0.888	0.949	0.514	0.55	0.475	0.51	0.476	0.546	0.563	0.558	0.555	0.541
NCI-H2009	0.308	0.247	0.328	0.272	0.259	1.02	1	1.06	1.05	1.08	0.502	0.475	0.491	0.486	0.469	0.632	0.616	0.651	0.658	0.644
